In US20250281480A1, “PHARMACEUTICAL DRY POWDER INHALATION FORMULATION” (Bayer Aktiengesellschaft, priority 2021, published 2025):
“And” between values parts separate entries of the source, which are not always exact repeats. Equal entries are not always repeated.

How the values were obtained:
[1] = test system: anesthetized PAH minipigs; experiment: PAH minipig, intratracheal application of dry powder formulations and of different hydrates (PAP, BP); format: in vivo, Göttingen Minipigs; details: for efficacy with regard to PAP reduction and systemic BP reduction: micronized hydrates; for PAP(mean) / BP (mean): per animal; for % changes vs. baseline on PAP: intratracheal application
Experimental: (§1) Healthy Göttingen Minipigs® Ellegaard (Ellegaard, Denmark) of both sexes and having a weight of 2-6 kg were used. The animals were sedated by i.m. administration of about 25 mg/kg ketamine and about 10 mg/kg azaperone. Anaesthesia was initiated by i.v. administration of about 2 mg/kg ketamine and about 0.3 mg/kg midazolam. Maintenance of anaesthesia was by i.v. administration of about 7.5-30 mg/kg/h ketamine and about 1-4 mg/kg/h midazolam (rate of infusion 1-4 ml/kg/h) and about 150 μg/kg/h pancuronium bromide (for example Pancuronium-Actavis). After intubation, the animals were ventilated by the ventilator at a constant respiratory volume (10-12 ml/kg, 35 breaths/min; Avea®, Viasys Healthcare, USA, or Engström Carestation, GE Healthcare, Freiburg, Germany) such that an end-tidal CO2 concentration of about 5% was achieved. Ventilation was performed with room air, enriched with about 40% oxygen (normoxia). For the measurement of the haemodynamic parameters such as pulmonary arterial pressure (PAP), blood pressure (BP) and heart rate (HR), catheters were inserted into the carotid artery to measure the blood pressure, and a Swan-Ganz® catheter was introduced in a flow-directed manner via the jugular vein into the pulmonary artery. The haemodynamic signals were recorded and evaluated by means of pressure transducers (Combitransducer, B. Braun, Melsungen, Germany)/amplifiers and Ponemah® as data acquisition software.
About 0.3-0.75 μg/kg/min of 9,11-didesoxy-9α,11α-epoxymethanoprostaglandine F2α (U-44069; Sigma, cat. no. D0400, or Cayman Chemical Company, cat. no. 16440), dissolved in physiological saline, were infused to achieve an increase of the mean pulmonary arterial pressure to values of over 25 mmHg.
After characterization of the effects of comparative example 11 after nebulization of compound solutions, in a further step the effects of crystalline forms of comparative example 11, e.g. sesquihydrate, e.g. example 6e on PAP and BP after inhaled application of different dry powder lactose formulations (table 52) were studied in anesthetized PAH minipigs.
As reference pure Lactose vehicle was applied in the beginning of each experiment.

[2] = test system: anesthetized thromboxane A2 challenged PAH-minipig; experiment: Haemodynamics in the anesthetized thromboxane challenged minipig (PAH minipig), inhaled nebulized solution: lung selectivity and duration of action; format: in vivo, Göttingen Minipigs
Experimental: as §1
After the instruments have been placed into the animals, continuous infusion of a thromboxane A2 analog was initiated to increase the pulmonary arterial pressure. About 0.3-0.75 μg/kg/min of 9,11-didesoxy-9α,11α-epoxymethanoprostaglandine F2α (U-44069; Sigma, cat. no. D0400, or Cayman Chemical Company, cat. no. 16440), dissolved in physiological saline, were infused to achieve an increase of the mean pulmonary arterial pressure to values of over 25 mmHg. 30 minutes after the start of the infusion, a plateau was reached, and the experiment was started.
The test substances were administered as i.v. infusion or by inhalation. For the preparation of the solution for inhalation, the following procedure was adopted: For an animal having a weight of 4 kg, to prepare the stock solution (300 μg/kg), 1.2 mg of the test compound were weighed out and dissolved in a total volume of 3 ml (1% DMSO, 99% 0.2% strength citric acid solution, 1 n aqueous sodium hydroxide solution to adjust the pH to 8). The solution was then diluted to the concentration employed using 0.2% strength citric acid which had been adjusted to pH 8 beforehand with aqueous sodium hydroxide solution. In each test, 3 ml of the solution of test compound per 4 kg animal were nebulized in the inhalation arm of the respiratory circuit using the Aeroneb® Pro nebulizer system. The mean nebulization time was about 7 min from the start of the nebulization.
With respect to a prediction of the duration of action for human studies comparative example 11 was compared in the PAH minipig model after inhaled application to Ventavis® (=Iloprost, 10 μg/kg nominal dose), which we used as a clinical reference. […] Therefore, the duration of action is more than 6 times longer compared to Ventavis in this preclinical animal model.

[3] = % vs. prevalues, 375 μg/kg i.t., time 60, each animal
[4] = % vs. prevalues, 375 μg/kg i.t., time 70, each animal
[5] = 375 μg/kg i.t., time 0, Sesquihydrate
[6] = 375 μg/kg i.t., time −10, Sesquihydrate

## O.O=C(O)c1ccc(CCN(CCc2ccccc2OCc2ccc(-c3ccc(C(F)(F)F)cc3)cc2Cl)[C@H]2CCCc3nc(C(=O)O)ccc32)cc1.O=C(O)c1ccc(CCN(CCc2ccccc2OCc2ccc(-c3ccc(C(F)(F)F)cc3)cc2Cl)[C@H]2CCCc3nc(C(=O)O)ccc32)cc1 [Example 6a, (5S)—{[2-(4-Carboxyphenyl)ethyl][2-(2-{[3-chloro-4′-(trifluoromethyl)biphenyl-4-yl]methoxy}phenyl)-ethyl]amino}-5,6,7,8-tetrahydroquinoline-2-carboxylic Acid Semihydrate]
[1]; 375 μg/kg i.t.
  efficacy with regard to PAP reduction and systemic BP reduction: comparable efficacy
[1]; 375 μg/kg i.t., time 170
  PAP(mean): 24.0 mmHg and 32.4 mmHg and 29.9 mmHg
[1]; 375 μg/kg i.t., time 180
  BP (mean): 94 mmHg
  PAP(mean): 23.7 mmHg
[1]; 375 μg/kg i.t., time 190
  BP (mean): 94 mmHg and 93 mmHg
  PAP(mean): 24.4 mmHg and 32.4 mmHg and 29.2 mmHg
[1]; 375 μg/kg i.t., time 200
  PAP(mean): 24.8 mmHg and 32.4 mmHg and 29.4 mmHg
[1]; 375 μg/kg i.t., time 210
  BP (mean): 91 mmHg
  PAP(mean): 24.8 mmHg and 29.2 mmHg
[1]; 375 μg/kg i.t., time 220
  PAP(mean): 24.7 mmHg and 29.1 mmHg
[1]; 375 μg/kg i.t., time 230
  PAP(mean): 24.0 mmHg
[1]; 375 μg/kg i.t., time 240
  BP (mean): 77 mmHg
  PAP(mean): 24.1 mmHg and 28.1 mmHg
[1]; 375 μg/kg i.t., time 250
  BP (mean): 76 mmHg
  PAP(mean): 24.2 mmHg and 28.1 mmHg
[1]; 375 μg/kg i.t., time 260
  BP (mean): 76 mmHg
  PAP(mean): 24.1 mmHg and 30.6 mmHg and 28.1 mmHg
[1]; 375 μg/kg i.t., time 270
  BP (mean): 76 mmHg
  PAP(mean): 24.4 mmHg and 30.6 mmHg and 27.8 mmHg
[1]; 375 μg/kg i.t., time 280
  BP (mean): 75 mmHg
  PAP(mean): 24.3 mmHg and 28.0 mmHg
[1]; 375 μg/kg i.t., time 290
  BP (mean): 75 mmHg
  PAP(mean): 24.1 mmHg and 27.6 mmHg
[1]; 375 μg/kg i.t., time 300
  BP (mean): 77 mmHg
  PAP(mean): 23.7 mmHg and 30.5 mmHg and 27.7 mmHg
[1]; [3]
  BP: 100.6% and 99.7% and 97.2%
  PAP: 100.7% and 99.4% and 99.2%
[1]; [4]
  BP: 102.6%
  PAP: 94.7%

## O=C(O)CCCCN(CCc1cc(F)ccc1OCc1ccc(-c2nc3cc(Cl)ccc3o2)cc1)C1CCCc2nc(C(=O)O)ccc21 (single isomer, unassigned) [compound 3, (5)-{(4-carboxybutyl)[2-(2-{[4-(5-chloro-1,3-benzoxazol-2-yl)benzyl]oxy}-5-fluorophenyl)ethyl]amino}-5,6,7,8-tetrahydroquinoline-2-carboxylic Acid, reference compound]
[2]; inhaled application
  effect on PAP completely resolved after: 120 min
[2]; nebulized solution
  time of maximal effect on PAP after inhaled application: 30 min

## O.O.O.O=C(O)c1ccc(CCN(CCc2ccccc2OCc2ccc(-c3ccc(C(F)(F)F)cc3)cc2Cl)[C@H]2CCCc3nc(C(=O)O)ccc32)cc1.O=C(O)c1ccc(CCN(CCc2ccccc2OCc2ccc(-c3ccc(C(F)(F)F)cc3)cc2Cl)[C@H]2CCCc3nc(C(=O)O)ccc32)cc1 [Example 6e, (5S)—{[2-(4-Carboxyphenyl)ethyl][2-(2-{[3-chloro-4′-(trifluoromethyl)biphenyl-4-yl]methoxy}phenyl)-ethyl]amino}-5,6,7,8-tetrahydroquinoline-2-carboxylic Acid Sesquihydrate]
[1]; 375 μg/kg i.t.
  efficacy with regard to PAP reduction and systemic BP reduction: comparable efficacy
[1]; [5]
  BP (mean): 104 mmHg
  PAP(mean): 41.9 mmHg
[1]; [6]
  BP (mean): 107 mmHg
  PAP(mean): 36.4 mmHg and 37.5 mmHg
[1]; time 80 (baseline = 100), each animal
  % changes vs. baseline on PAP: 100.0%
[1]; time 90, each animal, Sesquihydrate
  % changes vs. baseline on PAP: 98.9% and 103.6% and 99.8%
[1]; time 100, each animal, Sesquihydrate
  % changes vs. baseline on PAP: 99.5% and 101.4% and 97.3%
[1]; time 110, each animal, Sesquihydrate
  % changes vs. baseline on PAP: 89.3% and 98.7% and 86.8%
[1]; time 120, each animal, Sesquihydrate
  % changes vs. baseline on PAP: 84.0% and 95.6% and 75.7%
[1]; time 130, each animal, Sesquihydrate
  % changes vs. baseline on PAP: 78.9% and 93.7% and 70.2%
[1]; time 140, each animal, Sesquihydrate
  % changes vs. baseline on PAP: 75.2% and 91.8% and 67.5%
[1]; time 150, each animal, Sesquihydrate
  % changes vs. baseline on PAP: 74.0% and 76.0% and 65.4%
[1]; time 160, each animal, Sesquihydrate
  % changes vs. baseline on PAP: 71.0% and 79.5% and 65.9%
[1]; time 170, each animal, Sesquihydrate
  % changes vs. baseline on PAP: 68.5% and 74.3% and 61.5%
[1]; time 180, each animal, Sesquihydrate
  % changes vs. baseline on PAP: 63.2% and 80.8% and 62.0%
[1]; time 190, each animal, Sesquihydrate
  % changes vs. baseline on PAP: 61.5% and 80.8% and 58.6%
[1]; time 200, each animal, Sesquihydrate
  % changes vs. baseline on PAP: 62.3% and 80.3% and 60.2%
[1]; time 210, each animal, Sesquihydrate
  % changes vs. baseline on PAP: 61.0% and 80.7% and 59.4%
[1]; time 220, each animal, Sesquihydrate
  % changes vs. baseline on PAP: 59.5% and 86.3% and 57.8%
[1]; time 230, each animal, Sesquihydrate
  % changes vs. baseline on PAP: 58.6% and 82.6% and 57.8%
[1]; time 240, each animal, Sesquihydrate
  % changes vs. baseline on PAP: 59.3% and 81.5% and 57.6%
[1]; time 250, each animal, Sesquihydrate
  % changes vs. baseline on PAP: 59.3% and 82.2% and 56.1%
[1]; time 260, each animal, Sesquihydrate
  % changes vs. baseline on PAP: 58.8% and 82.7% and 57.6%
[1]; time 270, each animal, Sesquihydrate
  % changes vs. baseline on PAP: 59.9% and 78.3% and 55.4%
[1]; time 280, each animal, Sesquihydrate
  % changes vs. baseline on PAP: 58.4% and 78.3% and 55.9%
[1]; time 290, each animal, Sesquihydrate
  % changes vs. baseline on PAP: 57.4% and 79.6% and 53.9%
[1]; time 300, each animal, Sesquihydrate
  % changes vs. baseline on PAP: 60.1% and 78.7% and 54.5%
[1]; time 310, each animal, Sesquihydrate
  % changes vs. baseline on PAP: 58.4% and 77.6% and 53.7%
[1]; time 320, each animal, Sesquihydrate
  % changes vs. baseline on PAP: 61.8% and 76.3% and 55.1%
[1]; time 330, each animal, Sesquihydrate
  % changes vs. baseline on PAP: 61.3% and 74.8% and 53.0%
[1]; time 20 min, lactose vehicle first, test powder 1.5 mg/4 kg i.t. @90 min, per animal (n = 3), Sesquihydrate
  PAP: 42.0 mmHg and 37.5 mmHg
[1]; time 30 min, lactose vehicle first, test powder 1.5 mg/4 kg i.t. @90 min, per animal (n = 3)
  BP: 104 mmHg
[1]; time 30 min, lactose vehicle first, test powder 1.5 mg/4 kg i.t. @90 min, per animal (n = 3), Sesquihydrate
  PAP: 41.9 mmHg and 37.1 mmHg and 37.5 mmHg
[1]; time 40 min, lactose vehicle first, test powder 1.5 mg/4 kg i.t. @90 min, per animal (n = 3), Sesquihydrate
  PAP: 42.0 mmHg and 37.3 mmHg and 38.6 mmHg
[1]; time 50 min, lactose vehicle first, test powder 1.5 mg/4 kg i.t. @90 min, per animal (n = 3), Sesquihydrate
  PAP: 41.4 mmHg and 37.4 mmHg and 39.8 mmHg
[1]; time 60 min, lactose vehicle first, test powder 1.5 mg/4 kg i.t. @90 min, per animal (n = 3), Sesquihydrate
  PAP: 41.4 mmHg and 36.8 mmHg and 41.2 mmHg
[1]; time 70 min, lactose vehicle first, test powder 1.5 mg/4 kg i.t. @90 min, per animal (n = 3), Sesquihydrate
  PAP: 41.0 mmHg and 37.4 mmHg and 41.3 mmHg
[1]; time 80 min, lactose vehicle first, test powder 1.5 mg/4 kg i.t. @90 min, per animal (n = 3), Sesquihydrate
  PAP: 40.9 mmHg and 38.1 mmHg and 40.8 mmHg
[1]; time 90 min, lactose vehicle first, test powder 1.5 mg/4 kg i.t. @90 min, per animal (n = 3)
  BP: 102 mmHg
[1]; time 90 min, lactose vehicle first, test powder 1.5 mg/4 kg i.t. @90 min, per animal (n = 3), Sesquihydrate
  PAP: 40.4 mmHg and 39.5 mmHg
